How the values were obtained:
Type in all cases: in vivo
[1] = system: ducksalad (Heteranthera limosa); experiment: Test B flooded paddy test; conditions: Heteranthera limosa, Flood, 250 g ai/ha; scale of 0 to 100 where 0 is no effect and 100 is complete control; read-out: Ducksalad plant response rating
Summary of the method: (§1)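 Rating scale 0–100 (visual, vs untreated controls) after a 13–15 d greenhouse period; application to the flood layer, 3 cm above soil and maintained; plants at 2-leaf stage when treated.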

rice (Oryra sativa) = experiment: Test B flooded paddy test; conditions: Oryza sativa, Flood, 250 g ai/ha; scale of 0 to 100 where 0 is no effect and 100 is complete control; read-out: Rice plant response rating
Summary of the method: as §1

[2] = system: barnyardgrass (Echinochloa crus-galli); experiment: Test B flooded paddy test; conditions: Echinochloa crus-galli, Flood, 250 g ai/ha; scale of 0 to 100 where 0 is no effect and 100 is complete control; read-out: Barnyardgrass plant response rating
Summary of the method: as §1

[3] = system: sedge, umbrella (small-flower umbrella sedge, Cyperus difformis); experiment: Test B flooded paddy test; conditions: Cyperus difformis, Flood, 250 g ai/ha; scale of 0 to 100 where 0 is no effect and 100 is complete control; read-out: Sedge, Umbrella plant response rating
Summary of the method: as §1

[4] = system: ragweed (common ragweed, Ambrosia elatior); experiment: Test A preemergence; conditions: Ambrosia artemisiifolia, pre-emergence, 240 h, Preemergence
Summary of the method: (§2)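 Each rating is a visual injury score from 0 to 100 given about 10 d after treatment, judged against untreated controls kept alongside in the greenhouse. In loam soil–sand blend, seeds got a preemergence directed soil spray, while postemergence plants were 2 to 10 cm tall at spraying.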

[5] = system: barnyardgrass (Echinochloa crus-galli); experiment: Test A preemergence; conditions: Echinochloa crus-galli, pre-emergence, 240 h, Preemergence
Summary of the method: as §2

[6] = system: ryegrass, Italian (Italian ryegrass, Lolium multiflorum); experiment: Test A preemergence; conditions: Lolium multiflorum, pre-emergence, 240 h, Preemergence
Summary of the method: as §2

[7] = system: giant foxtail (Setaria faberii); experiment: Test A preemergence; conditions: Setaria faberi, pre-emergence, 240 h, Preemergence
Summary of the method: as §2

Kochia (Kochia scoparia) [8] = experiment: Test A preemergence; conditions: Bassia scoparia, pre-emergence, 240 h, Preemergence
Summary of the method: as §2

[9] = system: pigweed (Amaranthus retroflexus); experiment: Test A preemergence; conditions: Amaranthus retroflexus, pre-emergence, 240 h, Preemergence
[10] = system: ragweed (common ragweed, Ambrosia elatior); experiment: Test A postemergence; conditions: Ambrosia artemisiifolia, post-emergence, 240 h, Postemergence, read-out: Plant response rating, Ragweed
Summary of the method: as §2

[11] = system: Galium (catchweed bedstraw, Galium aparine); experiment: Test A postemergence; conditions: Galium, post-emergence, 240 h, Postemergence, read-out: Plant response rating, Galium
Summary of the method: as §2

[12] = system: blackgrass (Alopecurus myosuroides); experiment: Test A postemergence; conditions: Alopecurus myosuroides, post-emergence, 240 h, Postemergence, read-out: Plant response rating, Blackgrass
Summary of the method: as §2

[13] = system: barnyardgrass (Echinochloa crus-galli); experiment: Test A postemergence; conditions: Echinochloa crus-galli, post-emergence, 240 h, Postemergence, read-out: Plant response rating, Barnyardgrass
Summary of the method: as §2

[14] = system: wheat (Triticum aestivum); experiment: Test A postemergence; conditions: Triticum aestivum, post-emergence, 240 h, Postemergence, read-out: Plant response rating, Wheat
Summary of the method: as §2

corn (Zea mays) = experiment: Test A postemergence; conditions: Zea mays, post-emergence, 240 h, Postemergence
Summary of the method: as §2

[15] = system: ryegrass, Italian (Italian ryegrass, Lolium multiflorum); experiment: Test A postemergence; conditions: Lolium multiflorum, post-emergence, 240 h, Postemergence, read-out: Plant response rating, Ryegrass, Italian
Summary of the method: as §2

[16] = system: giant foxtail (Setaria faberii); experiment: Test A postemergence; conditions: Setaria faberi, post-emergence, 240 h, Postemergence, read-out: Plant response rating, Foxtail, Giant
Summary of the method: as §2

Kochia (Kochia scoparia) [17] = experiment: Test A postemergence; conditions: Bassia scoparia, post-emergence, 240 h, Postemergence, read-out: Plant response rating, Kochia
Summary of the method: as §2

[18] = system: pigweed (Amaranthus retroflexus); experiment: Test A postemergence; conditions: Amaranthus retroflexus, post-emergence, 240 h, Postemergence, read-out: Plant response rating, Pigweed
Summary of the method: as §2

[19] = 125 g ai/ha, visual injury after approximately 10 d, 0 to 100 scale where 0 is no effect and 100 is complete control
[20] = 31 g ai/ha, visual injury after approx. 10 d, 0 to 100 scale, 0 no effect, 100 complete control

CC(C)Oc1cc([C@H]2CN(C)C(=O)[C@@H]2C(=O)Nc2cccc(F)c2F)cc(C(F)(F)F)c1 [Compound 972]
pest or weed control at 250 g/ha [1]: 85% | pest or weed control at 250 g/ha (rice (Oryra sativa)): 50% | pest or weed control at 250 g/ha [2]: 80% | pest or weed control at 250 g/ha [3]: 0% | pest or weed control at 125 g/ha ([4]; 125 g ai/ha, visual injury rating after approximately 10 d, read-out: Ragweed plant response rating (0 to 100 scale, 0 is no effect, 100 is complete control)): 20% | pest or weed control at 31 g/ha ([4]; 31 g ai/ha, 0 to 100 scale (0 no effect, 100 complete control), read-out: Plant response rating, Ragweed): 0% | pest or weed control at 125 g/ha ([5]; 125 g ai/ha, visual injury rating after approximately 10 d, read-out: Barnyardgrass plant response rating (0 to 100 scale, 0 is no effect, 100 is complete control)): 80% | pest or weed control at 31 g/ha ([5]; 31 g ai/ha, 0 to 100 scale (0 no effect, 100 complete control), read-out: Plant response rating, Barnyardgrass): 70% | pest or weed control at 125 g/ha ([6]; 125 g ai/ha, visual injury rating after approximately 10 d, read-out: Ryegrass, Italian plant response rating (0 to 100 scale, 0 is no effect, 100 is complete control)): 90% | pest or weed control at 31 g/ha ([6]; 31 g ai/ha, 0 to 100 scale (0 no effect, 100 complete control), read-out: Plant response rating, Ryegrass, Italian): 50% | pest or weed control at 125 g/ha ([7]; 125 g ai/ha, visual injury rating after approximately 10 d, read-out: Foxtail, Giant plant response rating (0 to 100 scale, 0 is no effect, 100 is complete control)): 80% | pest or weed control at 31 g/ha ([7]; 31 g ai/ha, 0 to 100 scale (0 no effect, 100 complete control), read-out: Plant response rating, Foxtail, Giant): 80% | pest or weed control at 125 g/ha (Kochia (Kochia scoparia) [8]; 125 g ai/ha, visual injury rating after approximately 10 d, read-out: Kochia plant response rating (0 to 100 scale, 0 is no effect, 100 is complete control)): 0% | pest or weed control at 31 g/ha (Kochia (Kochia scoparia) [8]; 31 g ai/ha, 0 to 100 scale (0 no effect, 100 complete control), read-out: Plant response rating, Kochia): 0% | pest or weed control at 125 g/ha ([9]; 125 g ai/ha, visual injury rating after approximately 10 d, read-out: Pigweed plant response rating (0 to 100 scale, 0 is no effect, 100 is complete control)): 0% | pest or weed control at 31 g/ha ([9]; 31 g ai/ha, 0 to 100 scale (0 no effect, 100 complete control), read-out: Plant response rating, Pigweed): 0% | pest or weed control at 125 g/ha [10, 19]: 30% | pest or weed control at 31 g/ha [10, 20]: 0% | pest or weed control at 125 g/ha [11, 19]: 30% | pest or weed control at 31 g/ha [11, 20]: 0% | pest or weed control at 125 g/ha [12, 19]: 0% | pest or weed control at 31 g/ha [12, 20]: 0% | pest or weed control at 125 g/ha [13, 19]: 50% | pest or weed control at 31 g/ha [13, 20]: 50% | plant injury at 125 g/ha [14, 19]: 40% | plant injury at 31 g/ha [14, 20]: 20% | Corn plant response rating (crop injury, 0 = no effect, 100 = complete kill) at 125 g/ha (corn (Zea mays); [19]): 60% | Corn plant response rating (crop injury, 0 = no effect, 100 = complete kill) at 31 g/ha (corn (Zea mays); [20]): 20% | pest or weed control at 125 g/ha [15, 19]: 20% | pest or weed control at 31 g/ha [15, 20]: 0% | pest or weed control at 125 g/ha [16, 19]: 60% | pest or weed control at 31 g/ha [16, 20]: 30% | pest or weed control at 125 g/ha (Kochia (Kochia scoparia) [17]; [19]): 0% | pest or weed control at 31 g/ha (Kochia (Kochia scoparia) [17]; [20]): 0% | pest or weed control at 125 g/ha [18, 19]: 30% | pest or weed control at 31 g/ha [18, 20]: 20%
